# Laboratory results: patent EP0600092A1, “THIAZOLE DERIVATIVE” (OTSUKA PHARMACEUTICAL CO., LTD., priority 1992, dated 1993)
# System: human neutrophilic leukocyctes
# Test: Activity for inhibiting the generation of O2- in human neutrophilic leukocytes (FMLP-stimulated, ferricytochrome C method)
# Type: cell-based
# Details: Leukocyte, O₂⁻ generation stimulated with 3×10⁻⁷ M FMLP at 37°C, cytochalasin B 5 µg/ml, pre-incubated with test compound 20 minutes, 4 minutes reduction, absorbance 550 nm, read-out: IC₅₀
# Method: Activity for inhibiting the generation of O₂⁻ in human neutrophilic leukocyctes
# Human neutrophilic leukocyctes were prepared in accordance with the method of M. Markert et al. [Methods in Enzymology, vol. 105; pp. 358-365 (1984)]. That is, a whole blood obtained from a healthy adult and treated by anticoagulation method was subjected to a dextranhypotonic treatment to obtain leukocyte cells. The leukocycte cells were then subjected to a density gradient ultracentrifugation by Ficoll-Paque to obtain a neutrophilic leukocyte fraction.
# O₂⁻ generation was examined by the ferricytochrome C method in accordance with the mehtod of B.N. Cronstein et al. [Journal of Experimental Medicine, vol. 158, pp. 1160-1177 (1983)]. That is, […] of neutrophilic leukocytes were stimulated with 3×10⁻⁷ M of N-formyl-L-methionyl-L-leucyl-L-phenylalanine (FMLP) at 37°C in the presence of 1.3 mg/ml of ferricytochrome C and 5 µg/ml of cytochalasin B in a Hepes-buffered Hank's solution (pH 7.4); the amount of ferricytochrome C formed by 4 minutes of reduction was determined by measuring an absorbance at a wavelength of 550 nm using a spectrophotometer; an absorbance in the presence of 25.1 µg/ml of superoxide dismutase (SOD) was also measured; the difference of the two absorbances was taken as the amount of O₂⁻ generated. Each test compound was dissolved in dimethyl sulfoxide (DMSO); the solution was added to neutrophilic leukocytes before the addition of FMLP; then, the neutrophilic leukocytes were pre-incubated at 37°C for 20 minutes. By using the amount of O₂⁻ generated when the test compound solution was added and the amount of O₂⁻ generated when only the solvent (DMSO) was added, a ratio of inhibition (%) was calculated, and the activity for inhibiting O₂⁻ generation was expressed as 50% inhibitory concentration (IC₅₀).
row,IC50,SMILES
1,72 nM,CCOc1ccc(-c2nc(-c3cnccn3)cs2)cc1OCC [Example 23]
2,66 nM,CCOc1ccc(-c2nc(-c3ccc(C(N)=S)cc3)cs2)cc1OCC [Example 17]
3,230 nM,CCOc1ccc(-c2nc(-c3cccc(C(=N)NO)n3)cs2)cc1OCC [Example 29]
4,55 nM,CCOc1ccc(-c2nc(-c3cccc(C(N)=S)n3)cs2)cc1OCC [Example 24]
5,350 nM,"COc1ccc(-c2nc(-c3cccc(NC(=N)SC)c3)cs2)cc1OC [Test compound 16, 1-{3-[2-(3,4-Dimethoxyphenyl)-4-thiazolyl]phenyl}-2-methylisothiourea hydroiodide]"
6,330 nM,CCOc1ccc(-c2nc(-c3cccc(C(=N)SC)n3)cs2)cc1OCC [Example 25]
7,200 nM,CCOc1ccc(-c2nc(-c3ccc(C(=N)SC)cc3)cs2)cc1OCC [Example 19]
8,600 nM,"COc1ccc(-c2nc(-c3ccc(O)c(C(=O)NO)c3)cs2)cc1OC [Test compound 13, Disodium [2-(3,4-dimethoxyphenyl)-4-thiazolyl]salicylhydroxamate]"
9,750 nM,CCOc1ccc(-c2nc(-c3cc(N4CCN(C)CC4)ccn3)cs2)cc1OCC [Example 27]
10,30 nM,CCOc1ccc(-c2nc(-c3ccc(NC(N)=S)cc3)cs2)cc1OCC [Example 20]
11,450 nM,CCOc1ccc(-c2nc(-c3cccc(C(O)CN4CCN(C)CC4)n3)cs2)cc1OCC (stereo not shown) [Example 28]
12,240 nM,"CCOc1ccc(-c2nc(-c3ccc(O)c(-c4nnn[nH]4)c3)cs2)cc1OCC [Test compound 5, 2-(3,4-Diethoxyphenyl)-4-[3-(1,2,3,4-tetrazol-5-yl)-4-hydroxyphenyl]thiazole]"
13,13 nM,CCOc1ccc(-c2nc(-c3ccc(C(=N)NO)cc3)cs2)cc1OCC [Example 18]
